In patent US20030004172A1, “Fused pyrimidinone matrix metalloproteinase inhibitors” (priority 2001, published 2003):

Molecular target: MMP-13CD (catalytic domain of collagenase-3) (Homo sapiens, UniProt P45452)
Experiment: Thiopeptolide substrate hydrolysis inhibition assay, MMP-13CD
Format: biochemical
Conditions: Table I; thiopeptolide substrate, HEPES pH 7.0, 22° C.; read-out: MMP-13CD IC50
Text: Thiopeptolide substrates show virtually no decomposition or hydrolysis at or below neutral pH in the absence of a matrix metalloproteinase enzyme.

Row | SMILES | IC50 [nM]
1 | CCC(C)n1c(=O)c2cc(C(=O)NCc3cccc(OC)c3)sc2n(C)c1=O (stereo not shown) [Example 288] | 4200
2 | Cn1c(=O)n(Cc2nc(N)nc(Nc3ccccc3)n2)c(=O)c2cc(C(=O)OCc3ccccc3)sc21 [Example 105, 3(4-Amino-6-phenylamino-1,3,5-triazin-2-ylmethyl)-1-methyl-2,4-dioxo-1,2,4-tetrahydro-thieno[2,3-d]pyrimidine-6-carboxylic acid benzyl ester] | 520
3 | COc1ccc(CNC(=O)c2cc3c(=O)n(CCS(=O)(=O)c4ccc(Cl)cc4)c(=O)n(C)c3s2)cc1 [Example 247, 3-[2-(4-Chloro-benzenesulfonyl)-ethyl]-1-methyl-2,4-dioxo-1,2,3,4-tetrahydro-thieno[2,3-d]pyrimidine-6-carboxylic acid 4-methoxy-benzylamide] | 7200
4 | COc1cccc(COC(=O)c2cc3c(=O)n(Cc4ccc(C#N)cc4)c(=O)[nH]c3s2)c1 [Example 66, 3-(4-Cyano-benzyl)-2,4-dioxo-1,2,3,4-tetrahydro-thieno[2,3-d]pyrimidine-6-carboxylic acid 3-methoxy-benzyl ester] | 27.5
5 | O=C(OCc1ccoc1)c1cc2c(=O)n(Cc3ccccc3)c(=O)[nH]c2s1 [Example 13, 3-Benzyl-2,4-dioxo-1,2,3,4-tetrahydro-thieno[2,3-d]pyrimidine-6-carboxylic acid furan-3-ylmethyl ester] | 18000
6 | Cn1c(=O)n(Cc2ccc(Cl)nc2)c(=O)c2cc(C(=O)OCc3ccccc3)sc21 [Example 136, 3-(6-Chloro-pyridin-3-ylmethyl)-1-methyl-2,4-dioxo-1,2,3,4tetrahydro-thieno[2,3-d]pyrimidine-6-carboxylic acid benzyl ester] | 51
7 | CCCCC(CC)Cn1c(=O)c2cc(C(=O)NCc3cccc(OC)c3)sc2n(C)c1=O (stereo not shown) [Example 281] | 8900
8 | COc1ccc(CNC(=O)c2cc3c(=O)n(CCS(=O)(=O)c4ccc(C)cc4)c(=O)n(C)c3s2)cc1 [Example 269] | 26000
9 | COc1cccc(CNC(=O)c2cc3c(=O)n(CC4CCC(C(=O)O)CC4)c(=O)n(C)c3s2)c1 (stereo not shown) [Example 90, 4-[6-(3-Methoxy-benzylcarbamoyl)-1-methyl-2,4-dioxo-1,4-dihydro-2H-thieno[2,3-d]pyrimidin-3-ylmethyl]-cyclohexanecarboxylic acid] | 5.43
10 | Cn1c(=O)n(Cc2ccccc2)c(=O)c2cc(C(=O)OCc3ccccc3)oc21 [Example 97, 3-Benzyl-1-methyl-2,4-dioxo-1,2,3,4-tetrahydro-furo[2,3-d]pyrimidine-6-carboxylic acid benzyl ester] | > 100000

Results, then the compound that gave them:

Row | IC50 [nM] | SMILES
11 | 113 | COc1cccc(CNC(=O)c2cc3c(=O)n(Cc4ccc(C(=O)OCOC(=O)C(C)(C)C)cc4)c(=O)n(C)c3s2)c1 [Example 89, 4-[6-(3-Methoxy-benzylcarbamoyl)-1-methyl-2,4-dioxo-1,4-dihydro-2H-thieno[2,3-d]pyrimidin-3-ylmethyl]-benzoic acid 2,2-dimethyl-propionyloxymethyl ester]
12 | 270 | Cn1c(=O)n(Cc2ccccc2)c(=O)c2cc(C(=O)NCc3ccc(F)c(C(F)(F)F)c3)sc21 [Example 360, 3-Benzyl-1-methyl-2,4-dioxo-1,2,3,4-tetrahydro-thieno[2,3-d]pyrimidine-6-carboxylic acid 4-fluoro-3-trifluoromethyl-benzylamide]
13 | 5.35 | COc1cccc(CNC(=O)c2cc3c(=O)n(Cc4ccc(C5(C(=O)O)CC5)cc4)c(=O)n(C)c3s2)c1 [Example 94, 1-{4-[6-(3-Methoxy-benzylcarbamoyl)-1-methyl-2,4-dioxo-1,4-dihydro-2H-thieno[2,3-d]pyrimidin-3-ylmethyl]-phenyl}-cyclopropanecarboxylic acid]
14 | 590 | Cn1c(=O)n(Cc2ccc(C(F)(F)F)cc2)c(=O)c2cc(C(=O)OCc3ccccc3)sc21 [Example 106, 1-Methyl-2,4-dioxo-3-(4-trifluoromethyl-benzyl)-1,2,3,4-tetrahydro-thieno[2,3-d]pyrimidine-6-carboxylic acid benzyl ester]
15 | 100 | C=CCCOC(=O)c1cc2c(=O)n(Cc3ccccc3)c(=O)n(C)c2s1 [Example 208, 3-Benzyl-1-methyl-2,4-dioxo-1,2,3,4-tetrahydro-thieno[2,3-d]pyrimidine-6-carboxylic acid but-3-enyl ester]
16 | 15000 | Cn1c(=O)n(Cc2ccccc2)c(=O)c2cc(C(=O)OCc3c(Cl)cccc3Cl)sc21 [Example 149, 3-Benzyl-1-methyl-2,4-dioxo-1,2,3,4-tetrahydro-thieno[2,3-d]pyrimidine-6-carboxylic acid 2,6-dichloro-benzyl ester]
17 | 47.5 | COc1cccc(CNC(=O)c2cc3c(=O)n(Cc4ccc5c(c4)OCC5)c(=O)n(C)c3s2)c1 [Example 85, 3-(2,3-Dihydro-benzofuran-6-ylmethyl)-1-methyl-2,4-dioxo-1,2,3,4-tetrahydro-thieno[2,3-d]pyrimidine-6-carboxylic acid 3-methoxy-benzylamide]
18 | 8600 | Cn1c(=O)n(Cc2ccccc2)c(=O)c2cc(C(=O)OCc3cccc(Oc4ccccc4)c3)sc21 [Example 182, 3-Benzyl-1-methyl-2,4-dioxo-1,2,3,4-tetrahydro-thieno[2,3-d]pyrimidine-6-carboxylic acid 3-phenoxy-benzyl ester]
19 | > 100000 | Cn1c(=O)n(Cc2ccccc2)c(=O)c2cc(C(=O)OCCCc3ccccc3)sc21 [Example 181, 3-Benzyl-1-methyl-2,4-dioxo-1,2,3,4-tetrahydro-thieno[2,3-d]pyrimidine-6-carboxylic acid 3-phenyl-propyl ester]
20 | 5900 | COc1ccc(CNC(=O)c2cc3c(=O)n(CCC(=O)c4ccc(Cl)cc4)c(=O)n(C)c3s2)cc1 [Example 271]
21 | 4500 | COc1ccc(CNC(=O)c2cc3c(=O)n(Cc4ccc(C(=O)O)cc4)c(=O)n(C)c3s2)cc1OC [Example 54, 4-[6-(3,4-Dimethoxy-benzylcarbamoyl)-1-methyl-2,4-dioxo-1,4-dihydro-2H-thieno[2,3-d]pyrimidin-3-ylmethyl]-benzoic acid]
22 | 160 | COc1ccc(CNC(=O)c2cc3c(=O)n(Cc4ccc(F)cc4)c(=O)n(C)c3s2)cc1 [Example 60, 3-(4-Fluoro-benzyl)-1-methyl-2,4-dioxo-1,2,3,4-tetrahydro-thieno[2,3-d]pyrimidine-6-carboxylic acid 4-methoxy-benzylamide]
23 | 30000 | Cn1c(=O)n(Cc2ccc(C(=O)OC(C)(C)C)cc2)c(=O)c2cc(C(=O)NCc3ccc(Br)cc3)sc21 [Example 56, 4-[6-(4-Bromo-benzylcarbamoyl)-1-methyl-2,4-dioxo-1,4-dihydro-2H-thieno[2,3-d]pyrimidin-3-ylmethyl]-benzoic acid tert-butyl ester]
24 | 88000 | Cn1c(=O)n(Cc2ccccc2)c(=O)c2cc(C(=O)OCCCc3ccccn3)sc21 [Example 194, 3-Benzyl-1-methyl-2,4-dioxo-1,2,3,4-tetrahydro-thieno[2,3-d]pyrimidine-6-carboxylic acid 3-pyridin-2-yl-propyl ester]
25 | 4 | Cn1c(=O)n(Cc2ccccc2)c(=O)c2cc(C(=O)OCc3ccc(F)cc3)sc21 [Example 153, 3-Benzyl-1-methyl-2,4-dioxo-1,2,3,4-tetrahydro-thieno[2,3-d]pyrimidine-6-carboxylic acid 4-fluoro-benzyl ester]
